{"source": "paper PMC8294059", "about": "“Identification and Immune Assessment of T Cell Epitopes in Five Plasmodium falciparum Blood Stage Antigens to Facilitate Vaccine Candidate Selection and Optimization” (Frontiers in Immunology, 2021)", "note": "Where a SMILES comes first, the peptide text is derived from it.", "data": [{"target": "HLA-B*0702 (Homo sapiens, UniProt P01889)", "assay": "In vitro class I HLA binding assay (fluorescence polarization competition)", "settings": "allele B*0702; cell-free competition, fluorescence polarization at 72 hours; Non-binder = no dose-dependent inhibition", "method": "(§1) A cell-free class I HLA binding assay that allows for in vitro quantification of peptide-HLA binding affinity in a competition format was used. In this assay, a fluorescently labeled, high binding, control peptide is loaded onto 384-well ½-area plates along with unlabeled experimental peptides. To remove endogenous peptides and render the HLA A and B molecules receptive to binding, HLA is heated at 53°C for 15 minutes and immediately added to the assay. The mixture is then allowed to stand for three days. […] Binding of experimental peptides is expressed as the percent inhibition of the labeled control peptide (experimental fluorescence / control fluorescence, multiplied by 100). The percent inhibition values for each experimental peptide (across a range of molar concentrations) are used to calculate the concentration which inhibits 50% of the labeled control peptide’s specific binding. This value is referred to as the peptide’s IC50.", "values": [{"compound": "LQKHGFHTM [EBA175_1260]", "IC50 (nM)": "Non-binder"}, {"compound": "NPQQSVGENG [EBA175_0794]", "IC50 (nM)": "Non-binder"}, {"compound": "TPGPLDNTSE [EBA175_1073]", "IC50 (nM)": "Non-binder"}]}, {"target": "HLA-B*0702 (Homo sapiens, UniProt P01889)", "assay": "In vitro class I HLA binding assay (fluorescence polarization competition)", "settings": "allele B*0702; cell-free competition, fluorescence polarization at 72 hours; Non-binder = no dose-dependent inhibition; read-out: IC50", "method": "as §1", "units": {"IC50": "µM"}, "values": [{"compound": "CC[C@H](C)[C@H](NC(=O)[C@@H](NC(=O)[C@H](C)NC(=O)[C@H](CCCCN)NC(=O)[C@@H]1CCCN1C(=O)[C@@H](N)CCSC)C(C)C)C(=O)NCC(=O)N[C@@H](CO)C(=O)N[C@@H](CO)C(=O)N1CCC[C@H]1C(=O)O", "note": "[EBA175_0971] (H-MPKAVIGSSP-OH)", "IC50": 293}, {"compound": "CC[C@H](C)[C@H](NC(=O)[C@H](CC(N)=O)NC(=O)[C@H](CC(=O)O)NC(=O)[C@H](CC(N)=O)NC(=O)[C@@H]1CCCN1C(=O)[C@@H](N)CO)C(=O)N[C@@H](CC(N)=O)C(=O)N[C@H](C(=O)N[C@H](C(=O)O)[C@@H](C)O)C(C)C", "note": "[EBA175_0979] (H-SPNDNINVT-OH)", "IC50": 36.1}, {"compound": "CC(C)C[C@H](NC(=O)[C@@H](NC(=O)[C@H](CC(N)=O)NC(=O)[C@H](CO)NC(=O)[C@H](CC(N)=O)NC(=O)[C@H](CCCNC(=N)N)NC(=O)[C@H](CC(=O)O)NC(=O)[C@H](CCC(=O)O)NC(=O)[C@@H]1CCCN1C(=O)[C@@H](N)CC(N)=O)[C@@H](C)O)C(=O)O", "note": "[EBA175_1224] (H-NPEDRNSNTL-OH)", "IC50": 2.7}]}, {"target": "HLA-B*0702 (Homo sapiens, UniProt P01889)", "assay": "In vitro class I HLA binding assay (fluorescence polarization competition)", "settings": "allele B*0702; fluorescence polarization competition", "method": "as §1", "values": [{"compound": "CPENSTCEQI [RIPR_0331]", "IC50 (nM), in vitro HLA binding affinity": "Non-binder"}, {"compound": "FITSDHLRQM [RH5_469]", "IC50 (nM), in vitro HLA binding affinity": "Non-binder"}, {"compound": "FNRIEYHTKI [RH5_421]", "IC50 (nM), in vitro HLA binding affinity": "Non-binder"}, {"compound": "FPCSLYKDEI [AMA1_441]", "IC50 (nM), in vitro HLA binding affinity": "Non-binder"}, {"compound": "HPYDINNKND [RH5_240]", "IC50 (nM), in vitro HLA binding affinity": "Non-binder"}, {"compound": "IPHYTFLDYY [RH5_176]", "IC50 (nM), in vitro HLA binding affinity": "Non-binder"}, {"compound": "KPHECVCNKQ [RIPR_0878]", "IC50 (nM), in vitro HLA binding affinity": "Non-binder"}, {"compound": "KSAFLPTGAF [AMA1_376]", "IC50 (nM), in vitro HLA binding affinity": "Non-binder"}, {"compound": "LPIKSTEEEK [RH5_042]", "IC50 (nM), in vitro HLA binding affinity": "Non-binder"}]}]}
